Data reported in US20060229355A1, “3.3'-Diindolylmethane compositions inhibit angiogenesis” (priority 2005, published 2006).

Tests used:
cyclin E = assay: Western blot of G1 cell cycle components in HUVECs: cyclin E; assay type: cell-based, human; settings: DIM treatment
Text: (§1) DIM down-regulates CDK2 and CDK6, and up-regulates CDK inhibitor p27^Kip1 in HUVECs. […] To examine this possibility, the expressions of G1 cell cycle components were investigated by Western blot analysis.

HUVECs [1] = assay: Cell cycle analysis by flow cytometry; assay type: cell-based, human; settings: 24 h
Experimental: DIM induces a G1 cell cycle arrest in HUVECs. To further characterize the antiproliferative activity of DIM in HUVECs, we examined the effects of this indole on cell cycle regulation. For the cell cycle studies, HUVECs treated with vehicle control or 25 μM DIM for 24 h were analyzed by flow cytometry as described above.

HUVECs [2] = assay: Cell proliferation assay (HUVEC cell counting); assay type: cell-based, human
Experimental: Antiangiogenic effects of the DIM analogs are pre-screened with vascular endothelial cells proliferation assays. […] Cells were then treated by 0, 2, 5, 10, or 25 μM DIM candidate at 24, 48, and 72 h. DIM was dissolved in DMSO as 1000× stock solutions for each treatment. Cell numbers were assessed at various time points by trypsinization and counting with a Coulter Z1 cell counter, as described below in Example I below. Cell proliferation assay. To determine endothelial cell proliferation, approximately 8×10^4 HUVECs were seeded in 6-well plates and allowed to grow for 24 h. Cells were then treated by 0, 2, 5, 10, or 25 μM DIM at 24, 48, and 72 h. DIM was dissolved in DMSO as 1000× stock solutions for each treatment. Cell numbers were assessed at various time points by trypsinization and counting with a Coulter Z1 cell counter. DIM inhibits proliferation, invasion, migration and tube formation of HUVECs. […] First, DIM's effect on proliferation of human vascular endothelial cell (HUVECs) was examined. HUVECs were treated with 0, 2, 5, 10, or 25 μM DIM for 24 to 72 h. DIM inhibited HUVECs proliferation in a concentration- and time-dependent manner, with up to 70% inhibition of proliferation at 72 h treatment with 25 μM DIM.

CDK2 = assay: Western blot of G1 cell cycle components in HUVECs: CDK2; assay type: cell-based, human; settings: 25 μM DIM
Text: as §1

HUVECs [3] = assay: Cell invasion assay (Matrigel-coated transwell Boyden chamber); assay type: cell-based, human
Experimental: Cell invasion assay. Invasion assays were carried out using modified transwell Boyden chamber system. Chambers were assembled using 8 μm-pore BD Falcon transwell inserts as upper chambers, and the 12-well plates as lower chambers. Cell culture inserts were coated with 10 μl/insert Matrigel. Coated inserts were left to dry overnight in a laminar flow fume hood and then rehydrated with DMEM supplemented with 0.1% BSA for 1 h at 37° C. Rehydrated Matrigel wells were washed with the same medium. HUVECs were harvested by trypsin/EDTA and resuspended in 0.1% BSA/DMEM. Medium containing 5% FBS was applied to the lower chamber as chemoattractant, then cells were seeded at 1.5×10^5 cells/insert in the presence of 0, 5, 10 or 25 μM DIM and incubated for 2 h at 37° C. and 5% CO2. At the end of the incubation, the cells in the upper chamber were removed with cotton swabs and cells that traversed the Matrigel to the lower surface of the insert were fixed with 10% formalin/PBS and stained with crystal violet in 10% formalin/PBS. Cells that migrated to the lower surface of the insert were counted under the light microscope at a magnification of 40×. Each treatment was in triplicate. The quantification of the invasive cells in the presence of DIM was expressed as the percentage of the quantity of invasive cells under control conditions (DMSO). We next conducted a cell invasion assay to examine the effect of DIM on HUVEC movement through a simulated extracellular matrix. In a modified Boyden chamber assay, the transwell inserts were coated with a thin layer of Matrigel and inserted into wells containing 5% FBS medium as a chemoattractant. As a negative control, serum-free medium containing 0.1% BSA was used in the lower chamber wells. Cells which transversed the Matrigel and migrated to the lower part of the insert were photographed and quantified. […] In response to 5% FBS, however, HUVECs traversed the Matrigel and migrated to the lower chamber. The invasion of HUVECs was decreased by DIM in a concentration-dependent manner, in which DIM at 25 μM decreased cell invasion to 52% of the control.

[4] = Toxicity observations in MCF-7 xenograft study (feed intake, body weight, organ weights); assay type: in vivo, athymic (nu/nu) mice; settings: 5 mg/kg s.c. five times weekly
Experimental: (§2) II. Antiangiogenic DIM inhibits human breast carcinoma in xenograft model. Twenty female athymic (nu/nu) mice were acclimated to semi-purified phytoestrogen-free AIN-76 ad libitum for 7 days prior to the study. They were implanted with a 60-d release 0.72 mg estradiol pellet in the subscapular region. Mice were then inoculated s.c. in the bilateral flanks with 0.1 mL Matrigel containing 3×10^6 MCF-7 human breast cancer cells and randomly grouped (10/group) to receive s.c. injections of either 5 mg/kg DIM or DMSO in a PBS vehicle, five times weekly. Feed intake, body weight were measured weekly and palpable tumor diameter were measured twice per week. Tumor volumes were calculated as: (π/6)×[length(mm)×width^2(mm)] [15]. The experiment was terminated at 34 days. All animals were killed by CO2 asphyxiation.
(§3) DIM inhibits the growth of transplanted MCF-7 human breast carcinoma cells. Since we observed an inhibition of in vivo angiogenesis by DIM in the Matrigel plug assay, we determined whether DIM could inhibit the growth of transplanted breast carcinoma cells in female athymic (nu/nu) mice. Mice were injected s.c. with MCF-7 human breast cancer cells in the bilateral flanks. Mice were randomly assigned (10 mice/group) to receive s.c. injection of either DIM at 5 mg/kg dose or vehicle control DMSO in PBS, five times weekly. Feed intake, body weight and palpable tumor diameter were measured twice per week. Feed intake (22.2±1.3 g/wk vs. 22.9±1.0 g/wk) and body weight gain (2.3±0.2 g vs. 2.4±0.2 g) were not altered by DIM administration. […] Tumor volumes were calculated as: (π/6)×[length(mm)×width^2(mm^2)].

p21^Waf1/CiP1 = assay: Western blot of G1 cell cycle components in HUVECs: p21Waf1/Cip1; assay type: cell-based, human; settings: DIM treatment
Text: as §1

HUVECs [5] = assay: Wound migration assay; assay type: cell-based; settings: Homo sapiens, HUVEC; 25 μM DIM, 18 h incubation; read-out: number of cells migrating across the wound, % of control
Experimental: Wound migration assay. Migration was assessed using an in vitro wound assay. One hundred thousands cells were seeded into two 12-well cell culture plates and cultured in EGM-MV BulletKit to confluency. A scrape was made in the center of the cell monolayers with a sterile pipette tip to create a gap of constant width. Cellular debris was removed by gently washing with PBS. The initial images of the wounds were captured under phase contrast microscopy and the wounded monolayers were incubated further for 18 h in fresh EGM-MV BulletKit medium in the presence of DMSO or DIM of various concentrations (5, 10, or 25 μM). Pictures were taken with a Nikon Coolpix990 digital camera connected to the Nikon Eclipse TS 100 microscope at a 100× magnification. To quantify the migration, photographs of the initial wounded monolayers were compared with the corresponding images of cells at the end of the incubation. […] Cells that migrated across the lines were counted. All quantification were done on full-size images with the weight of artificial lines negligible compared to the size of the cell body. At least 5 fields from each triplicate treatment were counted. […] To quantify the migration, artificial lines fitting the cutting edges were drawn on pictures of the original wounded cells and overlaid on images of cells after incubation. Cells that migrated across the lines were counted. […]

p27^Kip1 = assay: Western blot of G1 cell cycle components in HUVECs: p27Kip1; assay type: cell-based, human; settings: 25 μM DIM
Text: as §1

[6] = system: neovascularization of Matrigel plugs; assay: Matrigel plug angiogenesis assay (hemoglobin content); assay type: in vivo, C57BL/6 mice; settings: 5 mg/kg s.c., from five days before Matrigel inoculation and 2 more weeks
Experimental: Matrigel plug angiogenesis assay. In vivo angiogenesis assays were performed on female C57BL/6 mice as described before. Mice were acclimated to semi-purified phytoestrogen-free AIN-76 ad libitum for 7 days prior to the study and randomly grouped (5/group). DMSO vehicle or DIM at 5 mg/kg was injected s.c. five days before Matrigel inoculation. Heparin (64 Unit/mL) and aFGF (100 ng/mL) were gently mixed with cold liquid Matrigel at 4° C. The Matrigel solution (0.3 ml) was injected into mice s.c. in the bilateral flanks. Animals were treated with DMSO control or DIM for 2 more weeks and terminated by CO2 inhalation. The gels were surgically removed and vascularization of Matrigel plugs was quantified by measuring hemoglobin content using Drabkin Reagent kit 525. DIM reduces in vivo angiogenesis. Using a rodent Matrigel plug angiogenesis assay, we next investigated whether DIM affects neovascularization in vivo. Matrigel is a urea extract of Engelbreth-Holm-Swarm (EHS) tumor, which contains laminin, collagen IV, heparan sulfate proteoglycan, and several growth factors, all of which are present in the authentic basement membrane of solid tumors. When injected subcutaneously into rodents, Matrigel forms a solid “plug” beneath the skin. The hemoglobin content in the Matrigel parallels blood vessels development in the gel, thereby allowing quantitation. […]

[7] = system: MCF-7 human breast cancer cells; assay: MCF-7 human breast carcinoma xenograft in athymic mice; assay type: in vivo, athymic (nu/nu) mice; settings: 5 mg/kg s.c. five times weekly
Experimental: as §2, §3

CDK4 = assay: Western blot of G1 cell cycle components in HUVECs: CDK4; assay type: cell-based, human; settings: DIM treatment
Text: as §1

HUVECs [8] = assay: Tube formation assay on Matrigel; assay type: cell-based, human; settings: 24 h pre-treatment, 10 μM DIM, 3-h incubation
Experimental: Tube formation assay. Endothelial cells plated onto a gel of basement membrane protein rapidly organize into multicellular tube-like structures [12; 13]. Twelve-well cell culture plates coated with Matrigel were ordered from BD-Discovery Labware and assay was performed according to the manufacturer's instruction. Briefly, Matrigel-coated 12-well plates were allowed to solidify at 37° C. for 1 h. Endothelial cells pre-treated with 0, 10, or 25 μM DIM for 24 h were trypsinized and 6×10^4 cells were added per well in 1 mL medium. Cell viability was determined by trypan blue exclusion stain before seeding. DIM treatments continued for the rest of the assay. Tube formation was observed periodically over time under a phase contrast microscope, and representative pictures were taken at 3 h and 24 h. In a further assay of angiogenesis, we examined the effect of DIM on HUVEC tube formation in culture. Capillary formation on Matrigel is a process that requires cell-matrix interaction. For the assay, HUVECs were pre-treated without or with 10 or 25 μM of DIM for 24 h and then seeded on a thin layer of Matrigel. Capillary tube structure formation was obvious at 3 h of incubation and was almost completed at 24 h in the control medium.

CDK6 = assay: Western blot of G1 cell cycle components in HUVECs: CDK6; assay type: cell-based, human; settings: 25 μM DIM
Text: as §1

c1ccc2c(Cc3c[nH]c4ccccc34)c[nH]c2c1 [DIM, 3,3′-Diindolylmethane]
level of cyclin E (cyclin E): not significantly affected
cell population in G1 phase (in words) (HUVECs [1]; 5 μM DIM, asynchronous growing cells): increased the cell population in G1 phase
proportion of S phase cells (HUVECs [1]; 25 μM DIM, vehicle control 15.2±1.3): 2.4±0.9%
proportion of cells in the G1 phase (HUVECs [1]; 25 μM DIM, vehicle control 71.8±2.5%): 85.7±2.9%
inhibition of proliferation (in words) (HUVECs [2]; 5 μM DIM, 72 h): Significant inhibition of proliferation
inhibition at 25 µM (HUVECs [2]; Homo sapiens, HUVEC, 25 μM DIM, 72 h treatment): ≤ 70%
cell survival and viability (trypan blue exclusion) (HUVECs [2]; conditions of the proliferation assay, 0-25 μM, 24-72 h): not obviously affected
CDK2 expression, % of the control (CDK2): 35%
cell invasion (in words) (HUVECs [3]; 5 μM DIM): trend of decreased cell invasion
cell invasion (in words) (HUVECs [3]; 10 μM DIM): more significant effect
cell invasion, % of the control (HUVECs [3]; 25 μM DIM, 5% FBS chemoattractant, 2 h): 52%
body weight gain [4]: not altered
feed intake [4]: not altered
relative organ weights [4]: not significantly affected
level of p21Waf1/Cip1 (p21^Waf1/CiP1): not significantly affected
activity at 25 µM (HUVECs [5]): 40%
p27Kip1 expression, fold of the control (p27^Kip1): ~3.5 fold
reduction of neovascularization compared to controls (hemoglobin content) [6]: up to 76%
reduction of tumor growth ([7]; after 3 weeks (P=0.22)): 40%
final average tumor volume ([7]; day 34, control 3121±554.5 mm^3): 1125±434 mm^3
reduction of tumor growth ([7]; termination at day 34 (P<0.05)): 64%
level of CDK4 (CDK4): not significantly affected
capillary tube structure formation (in words) (HUVECs [8]): decreased ability to extend and differentiate into tube-like structures
CDK6 expression, % of the control (CDK6): 40%
